Reference: patent US7825139B2, “Compounds and methods for selective inhibition of dipeptidyl peptidase-IV” (Forest Laboratories Holdings Limited (BM), priority 2005, dated 2010)

Tests used:
FAP = target: T1, FAP (Homo sapiens, UniProt Q12884); experiment: FAP IC50 assay (Ala-Pro AMC), selectivity versus DPP-IV; format: biochemical; conditions: IC50 of FAP divided by IC50 for DPP-IV
T1 construct: The full length cDNAs for human DPP-VII, DPP-VIII, DPP-IX, and FAP were obtained from Open Biosystems; 6xHis (N); made in house
T1 sequence (Q12884 1-760): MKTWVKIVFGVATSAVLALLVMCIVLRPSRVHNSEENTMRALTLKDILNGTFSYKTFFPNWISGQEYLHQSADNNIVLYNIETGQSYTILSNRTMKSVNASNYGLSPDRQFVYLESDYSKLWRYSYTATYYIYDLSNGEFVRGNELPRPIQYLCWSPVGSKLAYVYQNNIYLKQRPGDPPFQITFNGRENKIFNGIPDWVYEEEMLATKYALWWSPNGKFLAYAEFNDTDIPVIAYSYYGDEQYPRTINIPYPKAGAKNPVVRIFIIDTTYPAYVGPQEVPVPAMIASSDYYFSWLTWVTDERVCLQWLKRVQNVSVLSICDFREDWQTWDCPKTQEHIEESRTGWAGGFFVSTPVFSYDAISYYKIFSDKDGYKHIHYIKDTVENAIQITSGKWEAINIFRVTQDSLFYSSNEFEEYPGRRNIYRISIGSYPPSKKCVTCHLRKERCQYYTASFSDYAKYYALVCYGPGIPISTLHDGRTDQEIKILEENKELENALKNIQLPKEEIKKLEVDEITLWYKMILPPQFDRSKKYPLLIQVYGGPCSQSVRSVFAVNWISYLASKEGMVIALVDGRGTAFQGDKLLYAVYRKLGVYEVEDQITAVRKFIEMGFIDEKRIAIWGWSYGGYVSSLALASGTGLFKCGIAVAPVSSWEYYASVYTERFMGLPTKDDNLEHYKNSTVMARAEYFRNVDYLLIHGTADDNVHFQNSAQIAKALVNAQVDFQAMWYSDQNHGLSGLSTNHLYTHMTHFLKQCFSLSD
From the text: (§1) The term “selectivity ratio” refers to the IC50 value generated in a biochemical assay measuring inhibition of DPP-IV compared to the IC50 value generated in a biochemical assay measuring inhibition of another DPP family member (e.g. DPP-VII, DPP-VIII, DPP-IX or FAP) whereby the ratio is obtained by dividing the IC50 value of DPP-VII, DPP-VIII, DPP-IX or FAP by the IC50 value for DPP-IV.
(§2) Materials. S9 insect cells and Sf-900 II SFM media were from Invitrogen. Anti-FLAG M2 immunoaffinity gel was from Sigma. Gly-Pro-AMC, Lys-Pro AMC, and Ala-Pro AMC were from Enzyme Systems. IC50 calculations were performed by non-linear regression analysis using Prism software (GraphPad). Preparation of DPP-VII, DPP-VIII, DPP-IX, and FAP baculovirus constructs. The full length cDNAs for human DPP-VII, DPP-VIII, DPP-IX, and FAP were obtained from Open Biosystems. […] Baculovirus was prepared using the Bac-to-Bac Baculovirus Expression System (Invitrogen). The cDNAs in the final baculovirus constructs were sequence verified. Baculovirus expression. […] Infection with DPP-VII, DPP-VIII, DPP-IX, and FAP baculoviral constructs were all performed at an MOI of 4. The infected cells were grown for 48 hours and the cell pellets harvested and frozen until purification. DPP-VII was purified using anti-FLAG immunoaffinity gel according to the manufacturer's instructions. DPP-VIII, DPP-IX, and FAP were purified using a B-PER 6xHis Fusion Protein Column Purification Kit from Pierce. IC50 assay. Recombinant DPPs were diluted in reaction buffer to give fluorescence values of 5000-20000 counts in the “enzyme only wells” 20 min after addition of substrate at 27° C. Reaction buffers were 25 mM (2-(4-Morpholino)-Ethane Sulfonic Acid), pH 5.5 for DPP-VII, 25 mM Tris, pH 8, 1% Triton X-100, 100 mM NaCl for DPP-VIII, and 25 mM Tris pH 8 for DPP-1× and FAP. Test wells in a 96-well microtiter plate contained 88 μL of diluted DPP and 2.5 ul of titrated compound in 50 mM glycine, pH 2.6. “Enzyme only” wells contained 88 uL of diluted DPP and 2.5 ul of glycine buffer. “No enzyme” wells contained 88 uL of reaction buffer without DPP and 2.5 ul of glycine buffer. All assays were done in triplicate. The plate was incubated at 27° C. for 10 min and then cooled on ice for 10 min. Ten microliters of substrate diluted in reaction buffer (40 uM final concentration) without Triton or NaCl were then added to all wells followed by incubation at 27C for 20 min. Substrates were Lys-Pro AMC for DPP-VII, and Ala-Pro AMC for DPP-VIII, DPP-IX, and FAP. Fluorescence in each well was measured at settings of 380/460 nm.

DPP-VIII = target: T2, DPP-VIII (Homo sapiens, UniProt Q6V1X1); experiment: DPP-VIII IC50 assay (Ala-Pro AMC), selectivity versus DPP-IV; format: biochemical; conditions: IC50 of DPP-VIII divided by IC50 for DPP-IV
T2 construct: The full length cDNAs for human DPP-VII, DPP-VIII, DPP-IX, and FAP were obtained from Open Biosystems; 6xHis (C); made in house
T2 sequence (Q6V1X1 whole entry): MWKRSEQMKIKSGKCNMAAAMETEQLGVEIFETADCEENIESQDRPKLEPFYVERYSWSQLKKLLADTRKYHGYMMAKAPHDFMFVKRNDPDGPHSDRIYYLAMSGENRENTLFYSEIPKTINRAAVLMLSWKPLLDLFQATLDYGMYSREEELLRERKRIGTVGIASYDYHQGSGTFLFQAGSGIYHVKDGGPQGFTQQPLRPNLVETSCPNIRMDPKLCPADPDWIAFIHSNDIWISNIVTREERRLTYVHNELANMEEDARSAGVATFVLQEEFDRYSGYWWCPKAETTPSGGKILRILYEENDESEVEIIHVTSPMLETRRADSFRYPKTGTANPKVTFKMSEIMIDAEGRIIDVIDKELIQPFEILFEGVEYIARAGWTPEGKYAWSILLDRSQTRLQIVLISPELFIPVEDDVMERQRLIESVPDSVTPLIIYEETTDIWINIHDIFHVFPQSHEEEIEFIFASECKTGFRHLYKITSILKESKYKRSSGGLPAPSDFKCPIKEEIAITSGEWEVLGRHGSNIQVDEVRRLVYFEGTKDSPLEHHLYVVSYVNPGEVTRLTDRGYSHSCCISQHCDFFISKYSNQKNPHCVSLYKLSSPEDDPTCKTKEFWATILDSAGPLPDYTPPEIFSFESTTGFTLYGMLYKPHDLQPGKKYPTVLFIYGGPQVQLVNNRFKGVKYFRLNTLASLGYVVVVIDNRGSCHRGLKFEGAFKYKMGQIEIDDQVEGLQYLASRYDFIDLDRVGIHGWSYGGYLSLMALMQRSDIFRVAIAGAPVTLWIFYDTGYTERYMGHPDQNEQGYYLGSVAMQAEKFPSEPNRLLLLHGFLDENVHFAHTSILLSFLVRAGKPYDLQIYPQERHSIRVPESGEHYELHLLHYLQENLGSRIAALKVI
From the text: as §1, §2

DPP-VII = target: T3, DPP-VII (Homo sapiens, UniProt Q9UHL4); experiment: DPP-VII IC50 assay (Lys-Pro AMC), selectivity versus DPP-IV; format: biochemical; conditions: IC50 of DPP-VII divided by IC50 for DPP-IV
T3 construct: The full length cDNAs for human DPP-VII, DPP-VIII, DPP-IX, and FAP were obtained from Open Biosystems; FLAG (N); made in house
From the text: as §1, §2

Zucker Obese Fatty rats = experiment: Toxicity in rats, oral dosing; format: in vivo, rat; conditions: 1 mg/kg, 4-24 hrs post-dose, all Zucker Obese Fatty rats tested
From the text: Toxicity in Rats: The Zucker Diabetic Fatty (ZDF) rat model can be used to investigate the effects of the compounds of the invention on both the treatment and prevention of diabetes as rats of this sub-strain are initially pre-diabetic although they develop severe type 2 diabetes characterized by increased HbAl c levels over a period of 6 weeks. The same strain can be used to predict the clinical efficacy of other anti-diabetic drug types. For example, the model predicts the potency and limited clinical efficacy of thiazolidinedione insulin sensitizer compounds. The experimental protocol requires p.o. (oral gavage) administration of either vehicle or test article at indicated doses either QD or BID using a gastric feeding needle with a ball tip, without anesthesia, using hand restraint to adult rats which have been fasted overnight. Animals are monitored for clinical signs at 1, 2, 4 and 8 hour time intervals following the treatment regimen. Whole blood samples (to a maximum level of 10% of the total blood volume every 2 weeks) were collected from the animals from the retro-orbital sinus in accordance with the guidelines of the IACUC committee.
The expected therapeutic dose level could not be reached for the comparative compounds before acute toxicity was observed.

Selectivity Ratios FAP (FAP)	Selectivity Ratios DPP-VIII (DPP-VIII)	Selectivity Ratios DPP-VII (DPP-VII)	Structure (SMILES)	acute toxicity in rats (Zucker Obese Fatty rats)
D (50 < D ≦ 100)	C (10 < C ≦ 50)	C (10 < C ≦ 50)	CC(C)S(=O)(=O)N1CC[C@@H](N)[C@H](C(=O)N2CCC[C@H]2B(O)O)C1 [Compound 18, (2R)-1-[(3R,4R)-4-amino-1-(propane-2-sulfonyl)-piperidine-3-carbonyl]-boroPro-OH]	
D (50 < D ≦ 100)	D (50 < D ≦ 100)	E (E > 100)	N[C@@H]1CCN(S(=O)(=O)c2ccc(F)cc2)C[C@H]1C(=O)N1CCC[C@H]1B(O)O [Compound 8, (2R)-1-[(3R,4R)-4-amino-1-(4-fluoro-benzenesulfonyl)-piperidine-3-carbonyl]-boroPro-OH]	
D (50 < D ≦ 100)	D (50 < D ≦ 100)	E (E > 100)	N[C@@H]1CCN(S(=O)(=O)c2cccc(F)c2)C[C@H]1C(=O)N1CCC[C@H]1B(O)O [Compound 9, (2R)-1-[(3R,4R)-4-amino-1-(3-fluoro-benzenesulfonyl)-piperidine-3-carbonyl]-boroPro-OH]	
E (E > 100)	D (50 < D ≦ 100)	E (E > 100)	N[C@@H]1CCN(S(=O)(=O)c2ccc(F)cc2F)C[C@H]1C(=O)N1CCC[C@H]1B(O)O [Compound 11, (2R)-1-[(3R,4R)-4-amino-1-(2,4-difluoro-benzenesulfonyl)-piperidine-3-carbonyl]-boroPro-OH]	
E (E > 100)	C (10 < C ≦ 50)	E (E > 100)	CS(=O)(=O)N1CC[C@@H](N)[C@H](C(=O)N2CCC[C@H]2B(O)O)C1 [Compound 7, (2R)-1-[(3R,4R)-4-amino-1-methanesulfonyl-piperidine-3-carbonyl]-boroPro-OH]	
C (10 < C ≦ 50)	C (10 < C ≦ 50)	C (10 < C ≦ 50)	N[C@@H]1CCN(S(=O)(=O)c2cc(F)c(F)cc2F)C[C@H]1C(=O)N1CCC[C@H]1B(O)O [Compound 12, (2R)-1-[(3R,4R)-4-amino-1-(2,4,5-trifluoro-benzenesulfonyl)-piperidine-3-carbonyl]-boroPro-OH]	
C (10 < C ≦ 50)	E (E > 100)	C (10 < C ≦ 50)	N[C@@H]1CCN(S(=O)(=O)c2cccc(-c3ccccc3)c2)C[C@H]1C(=O)N1CCC[C@H]1B(O)O [Compound 17, (2R)-1-[(3R,4R)-4-amino-1-(biphenyl-3-sulfonyl)-piperidine-3-carbonyl]-boroPro-OH]	
			CC(C)[C@H](N)C(=O)N1CCC[C@H]1B(O)O [PT100]	acute toxicity (death)
E (E > 100)	D (50 < D ≦ 100)	E (E > 100)	CS(=O)(=O)c1ccc(S(=O)(=O)N2CC[C@@H](N)[C@H](C(=O)N3CCC[C@H]3B(O)O)C2)cc1 [Compound 13, (2R)-1-[(3R,4R)-4-amino-1-(4-methanesulfonyl-benzenesulfonyl)-piperidine-3-carbonyl]-boroPro-OH]	
C (10 < C ≦ 50)	E (E > 100)	E (E > 100)	N[C@@H]1CCN(S(=O)(=O)c2ccc(-c3ccccc3)cc2)C[C@H]1C(=O)N1CCC[C@H]1B(O)O [Compound 16, (2R)-1-[(3R,4R)-4-amino-1-(biphenyl-4-sulfonyl)-piperidine-3-carbonyl]-boroPro-OH]	
E (E > 100)	D (50 < D ≦ 100)	E (E > 100)	N[C@@H]1CCN(S(=O)(=O)c2ccccc2)C[C@H]1C(=O)N1CCC[C@H]1B(O)O [Compound 6, (2R)-1-[(3R,4R)-4-amino-1-Benzenesulfonyl-piperidine-3-carbonyl]-boroPro-OH]	
C (10 < C ≦ 50)	B (1 < B ≦ 10)	A (A ≦ 1)	Cl.O=C(CN[C@@H]1CCCNC1)N1CCC[C@H]1B(O)O [Compound 21, reference compound]	
C (10 < C ≦ 50)	C (10 < C ≦ 50)	C (10 < C ≦ 50)	N[C@@H]1CN(S(=O)(=O)c2cccc3ccccc23)CC[C@H]1C(=O)N1CCC[C@H]1B(O)O [Compound 14, (2R)-1-[(3R,4R)-4-amino-1-(naphthalene-1-sulfonyl)-piperidine-3-carbonyl]-boroPro-OH]	
E (E > 100)	B (1 < B ≦ 10)	A (A ≦ 1)	O=C(CNC1CCNCC1)N1CCC[C@H]1B(O)O [Compound 20, reference compound]	
D (50 < D ≦ 100)	C (10 < C ≦ 50)	E (E > 100)	N[C@@H]1CCN(S(=O)(=O)c2ccccc2F)C[C@H]1C(=O)N1CCC[C@H]1B(O)O [Compound 10, (2R)-1-[(3R,4R)-4-amino-1-(2-fluoro-benzenesulfonyl)-piperidine-3-carbonyl]-boroPro-OH]	
